In patent US12091650B2, “Development of spinal cord on a microfluidic chip” (EMULATE, INC., priority 2016, dated 2024):
Entries after “also recorded” stand apart in the source; their conditions may differ.

Key:
[1] = system: blood brain barrier (BBB) on-chip, iPS-derived brain endothelial cells; test: Barrier function test with human serum proteins (ELISA); type: in vitro ADME; conditions: FIG. 47, ELISA
Method: (§1) In some embodiments, methods for seeding cells on-chip are provided, as follows for one example: Day—1: Activate and Coat Chips, Day 0: Seed HBMECs, Astrocytes and Pericytes.; Day 1: Initiate flow of media @60 μl/hr. Bottom channel only or Top and bottom channels.; Day 2: Initiate permeability assay: Dextran+ Serum proteins+ Compounds of interest.; Day 3: End permeability assay. Collect media and freeze.; Day 4: Test permeability modulators/experimental stimuli Day 5: Repeat permeability assay.; Day 6: End permeability assay—Collect media and freeze. Fix or lyse chips.

iBMEC barrier function = test: TEER measurement on prototype TEER chips under flow; type: cell-based, human; conditions: FIG. 14A, chips under flow then exposed to TNFa
Method: Cells were plated on tall channel PDMS chips equipped with incorporated gold electrodes on each channel (see FIG. 13A). Post seeding of BMECs, transendothelial electrical resistance was measured by connecting the electrodes to an EVOM2 voltohmmeter (see FIG. 13B). […] The “damaged” chip was a failure due to the TEER-Chips being a prototype.
Higher TEER values generally indicate a tighter barrier, which is typically desirable for a blood-brain barrier.

[2] = system: BMECs seeded on a microfluidic device; test: Paracellular permeability assay with Dextran-FITC on chip; type: cell-based, human; conditions: FIG. 14B, TNFa exposure
Method: Albumin or Dextran conjugated to a fluorescent probe (e.g., FITC or TRITC) are frequently used to monitor changes in leakage, and thus barrier function. In this case, Dextran-FITC, a green fluorescent molecule of 4 KDa, or sodium fluorescein (a 0.3 KDa molecule), was added to the bottom (“blood side”) channel. Paracellular permeability was calculated by measuring the permeability of the fluorescent molecule on the Top (“brain side”) channel. […] FIG. 14B involves TNF-alpha exposure, but the readout is membrane permeability as measured by Dextran-FITC.

[3] = system: blood brain barrier (BBB) on-chip; type: in vitro ADME, human; conditions: FIG. 46A, % Dextran (fluorescence)
Method: as §1

[4] = system: SC-Chip neurons (lines 83GFP and 00iCTR); type: cell-based, human
neurons seeded in chip = type: cell-based, human

With “transferrin: human transferrin measured by ELISA” as the compound, how does the “diffusion / level in neuronal channel, from Vascular Channel to Neuronal Channel” value [1] read?
Its value is “High levels”.

Which “iBMEC barrier function (TEER) after exposure” value (iBMEC barrier function) does the source give for TNFa here?
Its value is “weakening of barrier function; also recorded: decrease in barrier function and TEER”.

And the “permeability through the semi-porous membrane by dextran-FITC after exposure” value [2]?
Its value is “increase in permeability”.

Dextran was tested. Which “diffusion from Vascular Channel to Neuronal Channel” value [3] did it give?
The value was “low diffusion”.

`NC1=N[C@H](O)[C@H]2[C@H]3O[C@]4(O)O[C@@H]([C@@H](O)[C@@]2(N1)[C@@H]4O)[C@]3(O)CO` [tetrodotoxin] was tested. Which “neuron activity (calcium transients)” value [4] did it give?
Its value is “completely ablated”.

And the “effect on calcium flux (neuronal) activity” value (neurons seeded in chip)?
The value was “ablates this activity”.
